Among the data in patent publication US6544985B2, “Dihydro-benzo [b][1,4]diazepin-2-one derivatives” (Hoffman-La Roche Inc., priority 2001, dated 2003) are melting point values, retold here.

As for `Cc1nc(-c2cccc(C3=Nc4cc(N(C)C)c(C(F)(F)F)cc4NC(=O)C3)c2)c(C)s1` [Example 214, 7-Dimethylamino-4-[3-(2,5-dimethyl-thiazol-4-yl)-phenyl]-8-trifluoromethyl-1,3-dihydro-benzo[b][1,4]diazepin-2-one], the melting point (in general, the temperature, or range, at which the solid turns liquid) lay in the range of 208 to 209 °C.

In turn, `CCN(C)c1cc2c(cc1Cl)NC(=O)CC(c1cccc(-c3nc(CO)co3)c1)=N2` [Example 187, 8-Chloro-7-(ethyl-methyl-amino)-4-[3-(4-hydroxymethyl-oxazol-2-yl)-phenyl]-1,3-dihydro-benzo[b][1,4]diazepin-2-one] displayed a melting point of 165 to 166 °C.

Turning to `CN(C)c1cc2c(cc1C(F)(F)F)NC(=O)CC(c1cccc(-c3nnc(CCO)o3)c1)=N2` [Example 207, 7-Dimethylamino-4-{3-[5-(2-hydroxy-ethyl)-[1,3,4]oxadiazol-2-yl]-phenyl}-8-trifluoromethyl-1,3-dihydro-benzo[b][1,4]diazepin-2-one], the melting point was 237 °C (dec.).

Regarding `CN(C)c1cc2c(cc1C#N)NC(=O)CC(c1cccc(-n3nncc3CO)c1)=N2` [Example 95, 8-Dimethylamino-2-[3-(5-hydroxymethyl-[1,2,3]triazol-1-yl)-phenyl]-4-oxo-4,5-dihydro-3H-benzo[b][1,4]diazepine-7-carbonitrile], the melting point was determined as 234 °C.

As to `CNCc1csc(-c2cccc(C3=Nc4cc(N(C)C)c(Cl)cc4NC(=O)C3)c2)n1` [Example 191, 8-Chloro-7-dimethylamino-4-[3-(4-methylaminomethyl-thiazol-2-yl)-phenyl]-1,3-dihydro-benzo[b][1,4]diazepin-2-one], the melting point was 129 to 130 °C.

Compound `CC(C)CN(C)c1cc2c(cc1C#N)NC(=O)CC(c1cccc(-n3nncc3CN3CCCC3)c1)=N2` [Example 137, 8-(Isobutyl-methyl-amino)-4-oxo-2-[3-(5-pyrrolidin-1-ylmethyl-[1,2,3]triazol-1-yl)-phenyl]-4,5-dihydro-3H-benzo[b][1,4]diazepine-7-carbonitrile] registered a melting point of 174 °C.

As for `CN(C)c1cc2c(cc1C#N)NC(=O)CC(c1cccc(C#N)c1)=N2` [Example 91, 2-(3-Cyano-phenyl)-8-dimethylamino-4-oxo-4,5-dihydro-3H-benzo[b][1,4]diazepine-7-carbonitrile], the melting point worked out at 251 °C.

Take `CC(C)CNc1cc2c(cc1C(F)(F)F)NC(=O)CC(c1cccc(-n3cncn3)c1)=N2` [Example 182, 7-(Isobutyl-amino)-4-(3-[1,2,4]triazol-1-yl-phenyl)-8-trifluoromethyl-1,3-dihydro-benzo[b][1,4]diazepin-2-one]: the melting point turned out to be 191 °C.

On to `CCCN(C)c1cc2c(cc1C)NC(=O)CC(c1cccc(-c3nc(CO)cs3)c1)=N2` [Example 199, 4-[3-(4-Hydroxymethyl-thiazol-2-yl)-phenyl]-8-methyl-7-(methyl-propyl-amino)-1,3-dihydro-benzo[b][1,4]diazepin-2-one], for which the melting point is 222 to 224 °C.

In turn, `CCCN(C)c1cc2c(cc1C#N)NC(=O)CC(c1cccc(-n3nncc3CO)c1)=N2` [Example 105, 2-[3-(5-Hydroxymethyl-[1,2,3]triazol-1-yl)-phenyl]-8-(methyl-propyl-amino)-4-oxo-4,5-dihydro-3H-benzo[b][1,4]diazepine-7-carbonitrile] gave a melting point of 221 °C.

For the compound `CN(C)c1cc2c(cc1C(F)(F)F)NC(=O)CC(c1cccc(-c3cscn3)c1)=N2` [Example 209, 7-Dimethylamino-4-(3-thiazol-4-yl-phenyl)-8-trifluoromethyl-1,3-dihydro-benzo[b][1,4]diazepin-2-one], the melting point was 200 °C (dec.).

`CN(C)c1cc2c(cc1C(F)(F)F)NC(=O)CC(c1cccc(-n3cc(CO)cn3)c1)=N2` [Example 68, 7-Dimethylamino-4-[3-(4-hydroxymethyl-pyrazol-1-yl)-phenyl]-8-trifluoromethyl-1,3-dihydro-benzo[b][1,4]diazepin-2-one] showed a melting point of 175 °C.
